This is an account of results in US7303765B2, “Ultrafine-L-carnitine, methods of preparing the same, compositions containing the same, and methods of using the same” (Sigma-Tau HealthScience S.p.A., priority 1999, dated 2007).

Bounds are passed on as bounds.

Series [1] can be described thus: Bioavailability / human plasma levels after dosing. The following applies: in vivo. The text has this: Transformers may therefore accomplish the target dosage using a reduced active bolus, an efficiency which translates to cost savings. In principle, consumers purchase nutritionals on a pure weight volume (W/V) basis.
A further series can be described thus: Solubility in water. The series is classed as physicochemical. The text has this: Ultra-fine L-carnitine fumarate so prepared has the following analytical properties: […]
Series [2] can be described thus: Oral toxicity (LD50) in rats. The following applies: rat, in vivo.

Consider `C[N+](C)(C)C[C@H](O)CC(=O)[O-].O=C(O)/C=C/C(=O)O` [Ultra-fine L-carnitine fumarate, L-carnitine fumarate], for which, in series [1] (human), the “bioavailability through the mitochondrial pathway” value is listed as “increased bioavailability”. Besides, the human plasma levels result in series [1] is “equal those of conventionally sized L-carnitine tartrate”. In the series “Solubility in water”, the Solubility turned out to be 5 g/100 ml in water. Also, in series [2], the LD50 was over 8000 mg/kg.
